# Earlier results in PubChem BioAssay AID1259409 (Chemical Carcinogenesis Research Information System (CCRIS), 2018).
# Test system: rodent chemically induced tumor inhibition, incidence and multiplicity
# Assay: CCRIS tumor inhibitor studies
# Conditions: Dose [Inhibitor]: 0, Promoter: NONE USED
smiles,measurement,setting,value
S=C=NCCc1ccccc1,"tumour outcome (control, treated, inhibition, significance)","Carcinogen: BENZO[A]PYRENE, 50-32-8, 12 MG/KG/D FOR 6 CONSECUTIVE DAYS (STUDY DURATION: 7 MO), Route [Inhibitor]: GAVAGE, Species: MOUSE, Strain/Sex: STRAIN-A/FEMALE, Target Tissue: Type of Lesion: LUNG: TUMOR, Dose [Carcinogen]: 100 MG/KG ONCE AFTER FOURTH INHIBITOR DOSE","100%, 100%, 0%, not significant"
same,"tumour outcome (control, treated, inhibition, significance)","Carcinogen: BENZO[A]PYRENE, 50-32-8, 12 MG/KG/D FOR 6 CONSECUTIVE DAYS (STUDY DURATION: 7 MO), Route [Inhibitor]: GAVAGE, Species: MOUSE, Strain/Sex: STRAIN-A/MALE, Target Tissue: Type of Lesion: LUNG: TUMOR, Dose [Carcinogen]: 100 MG/KG ONCE AFTER FOURTH INHIBITOR DOSE","100%, 100%, 0%, not significant"
same,"tumour outcome (control, treated, inhibition, significance)","Carcinogen: BENZO[A]PYRENE, 50-32-8, 41 MG/KG/D FOR 6 CONSECUTIVE DAYS (STUDY DURATION: 7 MO), Route [Inhibitor]: GAVAGE, Species: MOUSE, Strain/Sex: STRAIN-A/FEMALE, Target Tissue: Type of Lesion: LUNG: TUMOR, Dose [Carcinogen]: 100 MG/KG ONCE AFTER FOURTH INHIBITOR DOSE","100%, 100%, 0%, not significant"
same,"tumour outcome (control, treated, inhibition, significance)","Carcinogen: BENZO[A]PYRENE, 50-32-8, 41 MG/KG/D FOR 6 CONSECUTIVE DAYS (STUDY DURATION: 7 MO), Route [Inhibitor]: GAVAGE, Species: MOUSE, Strain/Sex: STRAIN-A/MALE, Target Tissue: Type of Lesion: LUNG: TUMOR, Dose [Carcinogen]: 100 MG/KG ONCE AFTER FOURTH INHIBITOR DOSE","100%, 95%, 5%, not calculated"
same,"tumour outcome (control, treated, inhibition, significance)","Carcinogen: BENZO[A]PYRENE, 50-32-8, 82 MG/KG/D FOR 6 CONSECUTIVE DAYS (STUDY DURATION: 7 MO), Route [Inhibitor]: GAVAGE, Species: MOUSE, Strain/Sex: STRAIN-A/FEMALE, Target Tissue: Type of Lesion: LUNG: TUMOR, Dose [Carcinogen]: 100 MG/KG ONCE AFTER FOURTH INHIBITOR DOSE","100%, 100%, 0%, not significant"
same,"tumour outcome (control, treated, inhibition, significance)","Carcinogen: BENZO[A]PYRENE, 50-32-8, 82 MG/KG/D FOR 6 CONSECUTIVE DAYS (STUDY DURATION: 7 MO), Route [Inhibitor]: GAVAGE, Species: MOUSE, Strain/Sex: STRAIN-A/MALE, Target Tissue: Type of Lesion: LUNG: TUMOR, Dose [Carcinogen]: 100 MG/KG ONCE AFTER FOURTH INHIBITION DOSE","100%, 100%, 0%, not significant"
same,"tumour outcome (control, treated, inhibition, significance)","Carcinogen: BENZO[A]PYRENE, 50-32-8, 122 MG/KG/D FOR 6 CONSECUTIVE DAYS (STUDY DURATION: 7 MO), Route [Inhibitor]: GAVAGE, Species: MOUSE, Strain/Sex: STRAIN-A/FEMALE, Target Tissue: Type of Lesion: LUNG: TUMOR, Dose [Carcinogen]: 100 MG/KG ONCE AFTER FOURTH INHIBITOR DOSE","100%, 90%, 10%, not significant"
same,"tumour outcome (control, treated, inhibition, significance)","Carcinogen: BENZO[A]PYRENE, 50-32-8, 122 MG/KG/D FOR 6 CONSECUTIVE DAYS (STUDY DURATION: 7 MO), Route [Inhibitor]: GAVAGE, Species: MOUSE, Strain/Sex: STRAIN-A/MALE, Target Tissue: Type of Lesion: LUNG: TUMOR, Dose [Carcinogen]: 100 MG/KG ONCE AFTER FOURTH INHIBITOR DOSE","100%, 95%, 5%, not significant"
same,"tumour outcome (control, treated, inhibition, significance)","Carcinogen: DIETHYLNITROSAMINE, 55-18-5, 82 MG/KG BW BY INTRAPERITONEAL INJECTION ON DAYS 13, 14 AND 15 OF AGE THEN 0.65 G/KG DIET FROM 21 TO 161 DAYS OF AGE, Route [Inhibitor]: INTRAPERITONEAL, ORAL, Species: MOUSE, Strain/Sex: C3H/MALE, Target Tissue: Type of Lesion: LIVER: ADENOMA, Dose [Carcinogen]: 4 MG/KG IN TRICAPRYLIN ONCE ON DAY 15 OF AGE","100%, 89%, 11%, not significant"
same,"tumour outcome (control, treated, inhibition, significance)","Carcinogen: DIETHYLNITROSAMINE, 55-18-5, N-METHYL-N-NITROSOUREA, 684-93-5, N-BUTYL-N-(4-HYDROXYBUTYL)NITROSAMINE, 3817-11-6, DIMETHY, Carcinogen: DIETHYLNITROSAMINE, 55-18-5, N-METHYL-N-NITROSOUREA, 684-93-5, N-BUTYL-N-(4-HYDROXYBUTYL)NITROSAMINE, 3817-11-6, DIMETHY, 0.1% IN THE DIET FOR 24 WK BEGINNING 1 DAY POST CARCINOGEN TREATMENT (STUDY DURATION: 28 WK), Route [Inhibitor]: ORAL, Species: RAT, Strain/Sex: F344/MALE, Target Tissue: Type of Lesion: LARGE INTESTINE: ADENOMA, Dose [Carcinogen]: 100 MG/KG BW DEN ONCE FOLLOWED BY 20 MG/KG BW MNU 4 TIMES AND 0.05% BBN IN DRINKING WATER DURING FIRST 2 WK THEN 40 MG/K","27%, 7%, 74%, not significant"
same,"tumour outcome (control, treated, inhibition, significance)","Carcinogen: DIETHYLNITROSAMINE, 55-18-5, N-METHYL-N-NITROSOUREA, 684-93-5, N-BUTYL-N-(4-HYDROXYBUTYL)NITROSAMINE, 3817-11-6, DIMETHY, Carcinogen: DIETHYLNITROSAMINE, 55-18-5, N-METHYL-N-NITROSOUREA, 684-93-5, N-BUTYL-N-(4-HYDROXYBUTYL)NITROSAMINE, 3817-11-6, DIMETHY, 0.1% IN THE DIET FOR 24 WK BEGINNING 1 DAY POST CARCINOGEN TREATMENT (STUDY DURATION: 28 WK), Route [Inhibitor]: ORAL, Species: RAT, Strain/Sex: F344/MALE, Target Tissue: Type of Lesion: LARGE INTESTINE: CARCINOMA, Dose [Carcinogen]: 100 MG/KG BW DEN ONCE FOLLOWED BY 20 MG/KG BW MNU 4 TIMES AND 0.05% BBN IN DRINKING WATER DURING FIRST 2 WK THEN 40 MG/K","7%, 0%, 100%, not significant"
same,"tumour outcome (control, treated, inhibition, significance)","Carcinogen: DIETHYLNITROSAMINE, 55-18-5, N-METHYL-N-NITROSOUREA, 684-93-5, N-BUTYL-N-(4-HYDROXYBUTYL)NITROSAMINE, 3817-11-6, DIMETHY, Carcinogen: DIETHYLNITROSAMINE, 55-18-5, N-METHYL-N-NITROSOUREA, 684-93-5, N-BUTYL-N-(4-HYDROXYBUTYL)NITROSAMINE, 3817-11-6, DIMETHY, 0.1% IN THE DIET FOR 24 WK BEGINNING 1 DAY POST CARCINOGEN TREATMENT (STUDY DURATION: 28 WK), Route [Inhibitor]: ORAL, Species: RAT, Strain/Sex: F344/MALE, Target Tissue: Type of Lesion: SMALL INTESTINE: ADENOMA, Dose [Carcinogen]: 100 MG/KG BW DEN ONCE FOLLOWED BY 20 MG/KG BW MNU 4 TIMES AND 0.05% BBN IN DRINKING WATER DURING FIRST 2 WK THEN 40 MG/K","33%, 50%, -52%, not significant"
same,"tumour outcome (control, treated, inhibition, significance)","Carcinogen: DIETHYLNITROSAMINE, 55-18-5, N-METHYL-N-NITROSOUREA, 684-93-5, N-BUTYL-N-(4-HYDROXYBUTYL)NITROSAMINE, 3817-11-6, DIMETHY, Carcinogen: DIETHYLNITROSAMINE, 55-18-5, N-METHYL-N-NITROSOUREA, 684-93-5, N-BUTYL-N-(4-HYDROXYBUTYL)NITROSAMINE, 3817-11-6, DIMETHY, 0.1% IN THE DIET FOR 24 WK BEGINNING 1 DAY POST CARCINOGEN TREATMENT (STUDY DURATION: 28 WK), Route [Inhibitor]: ORAL, Species: RAT, Strain/Sex: F344/MALE, Target Tissue: Type of Lesion: SMALL INTESTINE: CARCINOMA, Dose [Carcinogen]: 100 MG/KG BW DEN ONCE FOLLOWED BY 20 MG/KG BW MNU 4 TIMES AND 0.05% BBN IN DRINKING WATER DURING FIRST 2 WK THEN 40 MG/K","7%, 14%, -100%, not significant"
same,"tumour outcome (control, treated, inhibition, significance)","Carcinogen: DIETHYLNITROSAMINE, 55-18-5, N-METHYL-N-NITROSOUREA, 684-93-5, N-BUTYL-N-(4-HYDROXYBUTYL)NITROSAMINE, 3817-11-6, DIMETHY, Carcinogen: DIETHYLNITROSAMINE, 55-18-5, N-METHYL-N-NITROSOUREA, 684-93-5, N-BUTYL-N-(4-HYDROXYBUTYL)NITROSAMINE, 3817-11-6, DIMETHY, 0.1% IN THE DIET FOR 24 WK BEGINNING 1 DAY POST CARCINOGEN TREATMENT (STUDY DURATION: 28 WK), Route [Inhibitor]: ORAL, Species: RAT, Strain/Sex: F344/MALE, Target Tissue: Type of Lesion: THYROID: CARCINOMA, Dose [Carcinogen]: 100 MG/KG BW DEN ONCE FOLLOWED BY 20 MG/KG BW MNU 4 TIMES AND 0.05% BBN IN DRINKING WATER DURING FIRST 2 WK THEN 40 MG/K","7%, 8%, -14%, not significant"
same,"tumour outcome (control, treated, inhibition, significance)","Carcinogen: DIETHYLNITROSAMINE, 55-18-5, N-METHYL-N-NITROSOUREA, 684-93-5, N-BUTYL-N-(4-HYDROXYBUTYL)NITROSAMINE, 3817-11-6, DIMETHY, Carcinogen: DIETHYLNITROSAMINE, 55-18-5, N-METHYL-N-NITROSOUREA, 684-93-5, N-BUTYL-N-(4-HYDROXYBUTYL)NITROSAMINE, 3817-11-6, DIMETHY, 0.1% IN THE DIET FOR 24 WK BEGINNING 1 DAY POST CARCINOGEN TREATMENT (STUDY DURATION: 28 WK), Route [Inhibitor]: ORAL, Species: RAT, Strain/Sex: F344/MALE, Target Tissue: Type of Lesion: URINARY BLADDER: PAPILLOMA, Dose [Carcinogen]: 100 MG/KG BW DEN ONCE FOLLOWED BY 20 MG/KG BW MNU 4 TIMES AND 0.05% BBN IN DRINKING WATER DURING FIRST 2 WK THEN 40 MG/K","7%, 33%, -371%, not significant"
same,"tumour outcome (control, treated, inhibition, significance)","Carcinogen: DIETHYLNITROSAMINE, 55-18-5, N-METHYL-N-NITROSOUREA, 684-93-5, N-BUTYL-N-(4-HYDROXYBUTYL)NITROSAMINE, 3817-11-6, DIMETHY, Carcinogen: DIETHYLNITROSAMINE, 55-18-5, N-METHYL-N-NITROSOUREA, 684-93-5, N-BUTYL-N-(4-HYDROXYBUTYL)NITROSAMINE, 3817-11-6, DIMETHY, 0.1% IN THE DIET FOR 24 WK BEGINNING 1 WK P0ST CARCINOGEN TREATMENT (STUDY DURATION: 28 WK), Route [Inhibitor]: ORAL, Species: RAT, Strain/Sex: F344/MALE, Target Tissue: Type of Lesion: URINARY BLADDER: CARCINOMA, Dose [Carcinogen]: 100 MG/KG BW DEN ONCE FOLLOWED BY 20 MG/KG BW MNU 4 TIMES AND 0.05% BBN IN DRINKING WATER DURING FIRST 2 WK THEN 40 MG/K","7%, 33%, -371%, not significant"
